For three molecules, melting point, IC50 and IC100 results are on record in US9169241B2, “Quinolinyloxyphenylsulfonamides” (Max-Planck-Gesellschaft Zur Forderung der Wissenschaften …, priority 2009, dated 2015).

The term melting point denotes the temperature of the solid-liquid transition.

Like-named read-outs stand apart in the source and are kept apart here. A value given as a limit tells only on which side of the number the result lay.

Series [1] deals with indicated cell line. Description: Wound healing migration assay (Table IV). In kind it is cell-based. The settings on record: compounds at 12.5, 6.25, 3.125 μM, 48 h-72 h. The method in brief: (§1)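 Compound exposure at 12.5, 6.25 and 3.125 μM, with DMSO control, on scratch-wounded monolayers (150000 cells/24 well, overnight). Wound closure imaged by microscopy, fixed with crystal violet after 48 h or 72 h depending on cell line; IC50 is the concentration giving 50% wound size between t0 and t48/t72.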

The subject of series [2] is SF126. Description: Matrigel outgrowth assay/branching assay. In kind it is cell-based. The settings on record: Homo sapiens, SF-126, Table Vb, read-out: Total branching inhibition in Matrigel SF126. Summed up:
(§2)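 Matrigel 3 mg/ml, polymerized 1 h 37° C; 5000 cells/well + cmpd 3.125/1.56/0.78 μM or DMSO. Imaged 48/72/96 h, 5× objective. Positive = total branching block.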

The test system of series [3] is A172. The series can be described thus: Matrigel outgrowth assay/branching assay. In kind it is cell-based. The settings on record: Homo sapiens, A 172, Table Vb, read-out: Total branching inhibition in Matrigel A172. Summed up:
as §2

In series [4] the test system is Hs578T. Description: Matrigel outgrowth assay/branching assay. In kind it is cell-based. The note with it: Homo sapiens, Hs-578T; HS578T cell line; Table Ib; read-out: Total branching inhibition in Matrigel HS578T. The method in brief:
as §2

In series [5] the test system is U118. Description: Matrigel outgrowth assay/branching assay. In kind it is cell-based. The settings on record: Table Vb, read-out: Total branching inhibition in Matrigel U118. Summed up: as §2
In series [6] the test system is Hs578T. The series can be described thus: Wound healing migration assay. The note with it: Homo sapiens, Hs-578T; HS578T cell line; Table Ib. In kind it is cell-based. The method in brief:
as §1

Series [7] deals with SF126. The series can be described thus: Cell vitality assay (ATP assay, CellTiter-Glo). In kind it is cell-based. The note with it: Homo sapiens, SF-126; SF126, 72 h; Table IIa; read-out: IC50 ATP-Assay after 72 h SF126. The method in brief: (§3)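 Luminescent ATP read-out of viable cells; IC50 = concentration at which ATP falls to 50% of DMSO control. Cells seeded at 1000/well, treated 72 h with seven concentrations from 0.195 to 12.5 μM.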
In general terms: Cellular ATP, detected with luciferase, serves as a proxy for viable cell number.

For series [8], the system named is A172. The series can be described thus: Cell vitality assay (ATP assay, CellTiter-Glo). The note with it: Homo sapiens, A 172; A172, 72 h; Table IIa; read-out: IC50 ATP-Assay after 72 h A172. In kind it is cell-based. The method in brief:
as §3

Series [9] relates to Hs578T. The series can be described thus: Cell vitality assay (ATP assay, CellTiter-Glo). In kind it is cell-based. The settings on record: Homo sapiens, Hs-578T; HS578T cell line, 72 h; Table Ib; read-out: IC50 ATP-Assay HS578T after 72 h. Summed up: as §3
Series [10] concerns U118. Description: Cell vitality assay (ATP assay, CellTiter-Glo). In kind it is cell-based. The settings on record: U118, 72 h; Table IIa; read-out: IC50 ATP-Assay after 72 h U118. The method in brief: as §3
The mark [11] stands for this setting: Homo sapiens, A 172, A172 cells, read-out: IC50 Wound healing Assay A172.
The mark [12] stands for this setting: Homo sapiens, SF-126, SF126 cells, read-out: IC50 Wound healing Assay SF126.
[13] abbreviates: U118 cells, read-out: IC50 Wound healing Assay U118.

In the case of `COc1cc2c(Oc3ccc(NS(=O)(=O)c4ccccc4C(F)(F)F)cc3F)ccnc2cc1OCCCN1CCCCC1` [Example 4, N-{3-Fluoro-4-[6-methoxy-7-(3-piperidin-1-yl-propoxy)-quinolin-4-yloxy]-phenyl}-2-trifluoromethyl-benzenesulfonamide], the melting point was 173 to 175 °C. The IC50 in series [1] (setting [11]) is not above 12.5 µM. Besides, the IC50 in [1] (setting [12]) was not above 12.5 µM. Besides, the IC50 in series [1] (setting [13]) was not above 12.5 µM. In addition, the IC100 in series [2] is not above 12.5 µM. For the same molecule, the IC100 in series [3] was more than 12.5 µM. In series [4], the IC50 is not above 10 µM. The IC100 in [5] was not above 12.5 µM. Also, the IC50 in [6] was not above 12.5 µM. For the same molecule, in series [7], the IC50 is not above 12.5 µM. The IC50 in series [8] is not above 12.5 µM. Moreover, in series [9], the IC50 was not above 12.5 µM. Further, the IC50 in [10] is not above 12.5 µM.
In turn, `COc1cc2c(Oc3ccc(NS(=O)(=O)c4cc(F)ccc4F)cc3F)ccnc2cc1OCCCN1CCCCC1C` (stereo not drawn) [Example 151, 2,5-Difluoro-N-(3-fluoro-4-{6-methoxy-7-[3-(2-methyl-piperidin-1-yl)-propoxy]-quinolin-4-yloxy}-phenyl)-benzenesulfonamide] yielded a melting point of 120 to 122 °C. The IC50 in series [1] (setting [11]) was not above 12.5 µM. In series [1] (setting [12]), the IC50 was not above 12.5 µM. Also, the IC50 in series [1] (setting [13]) was not above 12.5 µM. For the same molecule, in series [2], the IC100 was not above 12.5 µM. The IC100 in [3] is not above 12.5 µM. In addition, in [4], the IC50 was not above 10 µM. Moreover, in series [5], the IC100 was not above 12.5 µM. The molecule further registered an IC50 in [6] not above 12.5 µM. In [7], the IC50 is not above 12.5 µM. Also, the IC50 in series [8] was not above 12.5 µM. Moreover, the IC50 in series [9] is not above 12.5 µM. For the same molecule, the IC50 in series [10] is not above 12.5 µM.
The molecule `COc1cc2c(Oc3ccc(NS(=O)(=O)c4cc(F)ccc4F)cc3F)ccnc2cc1OCCCN(C)C` [Example 177, N-{4-[7-(3-Dimethylamino-propoxy)-6-methoxy-quinolin-4-yloxy]-3-fluoro-phenyl}-2,5-difluoro-benzenesulfonamide] returned a melting point of 108 to 110 °C. The IC50 in series [1] (setting [11]) is not above 12.5 µM. Besides, the IC50 in series [1] (setting [12]) was not above 12.5 µM. Besides, the IC50 in series [1] (setting [13]) is not above 12.5 µM. In series [2], the IC100 is not above 12.5 µM. Further, the IC100 in series [3] was not above 12.5 µM. The IC50 in series [4] was not above 10 µM. Also, the IC100 in series [5] was not above 12.5 µM. This molecule showed an IC50 in series [6] not above 12.5 µM. In addition, in series [7], the IC50 is not above 12.5 µM. Also, the IC50 in [8] was not above 12.5 µM. The IC50 in [9] was not above 12.5 µM. Moreover, in series [10], the IC50 was not above 12.5 µM.
